Key:
barnyardgrass [1] = experiment: Test B pre-/postemergence herbicide test; type: in vivo, Echinochloa crus-galli; settings: for Barnyardgrass plant response rating: postemergence
Outline: (§1)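 Herbicidal effect was judged by eye on a 0–100 scale after plants stood 13 to 15 days in the greenhouse following pre- or postemergence treatment with surfactant-containing formulations.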

Surinam grass = experiment: Test B pre-/postemergence herbicide test; type: in vivo, Urochloa decumbens; settings: for Surinam Grass plant response rating: postemergence
Outline: (§2)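 Greenhouse pot assay with simultaneous preemergence (treated seed) and postemergence (2–18 cm seedlings) applications of surfactant-containing, non-phytotoxic solvent formulations. Response scored visually 13–15 days later on a 0–100 scale, 100 meaning complete control.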

cocklebur = experiment: Test B pre-/postemergence herbicide test; type: in vivo, Xanthium strumarium; settings: for Cocklebur plant response rating: postemergence
Outline: as §1

corn = experiment: Test B pre-/postemergence herbicide test; type: in vivo, Zea mays; settings: for Corn plant response rating: postemergence
Outline: as §2

large crabgrass = experiment: Test B pre-/postemergence herbicide test; type: in vivo, Digitaria sanguinalis; settings: for Crabgrass, Large plant response rating: postemergence
Outline: as §2

giant foxtail = experiment: Test B pre-/postemergence herbicide test; type: in vivo, Setaria faberi; settings: for Foxtail, Giant plant response rating: postemergence
Outline: as §2

lambsquarters = experiment: Test B pre-/postemergence herbicide test; type: in vivo, Chenopodium album; settings: for Lambsquarters plant response rating: postemergence
Outline: as §2

morningglory = experiment: Test B pre-/postemergence herbicide test; type: in vivo, Ipomoea coccinea; settings: for Morningglory plant response rating: postemergence
Outline: as §1

pigweed = experiment: Test B pre-/postemergence herbicide test; type: in vivo, Amaranthus retroflexus; settings: for Pigweed plant response rating: postemergence
Outline: as §2

rice [2] = experiment: Test B pre-/postemergence herbicide test; type: in vivo, Oryza sativa; settings: preemergence
Outline: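 Species tested were Echinochloa crus-galli, Ipomoea coccinea, Xanthium strumarium and Oryza sativa, treated both before emergence and at the 1- to 4-leaf stage; rice and barnyardgrass were also tested under flooding at 2 leaves. Greenhouse incubation lasted 13–15 days before visual 0–100 scoring.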

velvetleaf = experiment: Test B pre-/postemergence herbicide test; type: in vivo, Abutilon theophrasti; settings: for Velvetleaf plant response rating: postemergence
Outline: as §2

blackgrass = experiment: Test B postemergence herbicide test; type: in vivo, Alopecurus myosuroides; settings: scale 0 (no effect) to 100 (complete control); for Blackgrass plant response rating: postemergence, visual rating
Outline: (§3)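 Treated at 2-leaf (paddy) or 1–4-leaf, 2–18 cm (postemergence); greenhouse 13–15 d; visual score vs control, 0 none to 100 complete control; dash = not tested.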

wheat = experiment: Test B postemergence herbicide test; type: in vivo, Triticum aestivum; set-up: key to Wheat plant response rating: 0 = no effect, 100 = complete control; settings: for Wheat plant response rating: postemergence
Outline: (§4)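 Plants grow to 1- to 4-leaf stage (2–18 cm) for postemergence spraying, or to 2-leaf stage for the paddy test. Formulated compound is applied. Greenhouse holding lasts 13–15 days. Response is scored visually relative to controls, 0 no effect to 100 complete control; a dash means no result.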

wild oat = experiment: Test B postemergence herbicide test; type: in vivo, Avena fatua; settings: for Oat, Wild plant response rating: postemergence
Outline: as §4

rice [3] = experiment: Test B flooded paddy test; type: in vivo, Oryza sativa; settings: 1000 g ai/ha, scale 0 to 100 (0 no effect, 100 complete control)
Outline: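 Greenhouse test; postemergence application to plants at 1–4 leaves (2–18 cm); paddy species at 2 leaves; evaluated visually vs controls at 13–15 days; scale 0–100 (100 = complete control).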

[4] = tested on: small flower umbrella sedge; experiment: Test B flooded paddy test; type: in vivo, Cyperus difformis; settings: 1000 g ai/ha, scale 0 to 100 (0 no effect, 100 complete control)
Outline: as §3

ducksalad = experiment: Test B flooded paddy test; type: in vivo, Heteranthera limosa; settings: 1000 g ai/ha, scale 0 to 100 (0 no effect, 100 complete control)
Outline: as §3

barnyardgrass [5] = experiment: Test B flooded paddy test; type: in vivo, Echinochloa crus-galli; settings: 1000 g ai/ha, scale 0 to 100 (0 no effect, 100 complete control)
Outline: as §3

[6] = 125 g ai/ha, 0 = no effect, 100 = complete control, preemergence
[7] = 500 g ai/ha, visual rating, 0 = no effect, 100 = complete control, preemergence
[8] = 125 g ai/ha, visual rating, scale 0 (no effect) to 100 (complete control)
[9] = 500 g ai/ha, visual rating, scale 0 (no effect) to 100 (complete control)
[10] = 500 g ai/ha, scale 0 to 100, 0 is no effect, 100 is complete control
[11] = 125 g ai/ha, 0 = no effect, 100 = complete control
[12] = 500 g ai/ha, visual rating, 0 = no effect, 100 = complete control
[13] = 500 g ai/ha, visual rating 0-100, 0 no effect, 100 complete control, preemergence
[14] = Postemergence, 500 g ai/ha, visual rating after 13 to 15 days, scale 0 (no effect) to 100 (complete control)
[15] = preemergence, 125 g ai/ha, 0 to 100 scale, 0 is no effect, 100 is complete control

CCOC(=O)c1cc(NC(=O)c2cc(C(C)(C)C)nn2CC)c(F)cc1F [Compound 250]
50: Rice plant response rating (rice [3])
20: Barnyardgrass plant response rating (barnyardgrass [1]; [8]) | Barnyardgrass plant response rating (barnyardgrass [1]; [9]) | Surinam Grass plant response rating (Surinam grass; [10]) | Corn plant response rating (corn; [8]) | Crabgrass, Large plant response rating (large crabgrass; [8]) | Crabgrass, Large plant response rating (large crabgrass; [10]) | Foxtail, Giant plant response rating (giant foxtail; [8]) | Morningglory plant response rating (morningglory; [8]) | Plant response rating, Velvetleaf (velvetleaf; [7]) | Velvetleaf plant response rating (velvetleaf; [8]) | Wheat plant response rating (wheat; [8]) | Oat, Wild plant response rating (wild oat; [8])
40: Cocklebur plant response rating (cocklebur; [9]) | Lambsquarters plant response rating (lambsquarters; [10]) | Blackgrass plant response rating (blackgrass; 500 g ai/ha) | Wheat plant response rating (wheat; [10]) | Oat, Wild plant response rating (wild oat; [10]) | Ducksalad plant response rating (ducksalad)
30: Plant response rating, Surinam Grass (Surinam grass; [7]) | Cocklebur plant response rating (cocklebur; [8]) | Corn plant response rating (corn; [10]) | Foxtail, Giant plant response rating (giant foxtail; [10]) | Morningglory plant response rating (morningglory; [10]) | Pigweed plant response rating (pigweed; [8]) | Velvetleaf plant response rating (velvetleaf; [10])
0: Barnyardgrass plant response rating (0 to 100 scale) (barnyardgrass [1]; [6]) | Cocklebur plant response rating (0 to 100 scale) (cocklebur; [6]) | Plant response rating, Cocklebur (cocklebur; [7]) | Corn plant response rating (0 to 100 scale) (corn; [6]) | Plant response rating, Corn (corn; [7]) | Crabgrass, Large plant response rating (0 to 100 scale) (large crabgrass; [6]) | Foxtail, Giant plant response rating (0 to 100 scale) (giant foxtail; [6]) | Lambsquarters plant response rating (0 to 100 scale) (lambsquarters; [6]) | Lambsquarters plant response rating (lambsquarters; [8]) | Morningglory plant response rating (0 to 100 scale) (morningglory; [6]) | Plant response rating, Morningglory (morningglory; [7]) | Pigweed plant response rating (0 to 100 scale) (pigweed; [6]) | Rice plant response rating (0 to 100 scale) (rice [2]; [11]) | Velvetleaf plant response rating (0 to 100 scale) (velvetleaf; [6]) | Barnyardgrass plant response rating (barnyardgrass [5])
70: Pigweed plant response rating (pigweed; [10]) | Sedge, Umbrella plant response rating [4]
10: Plant response rating, Barnyardgrass (barnyardgrass [1]; [7]) | Surinam Grass plant response rating (0 to 100 scale) (Surinam grass; [6]) | Surinam Grass plant response rating (Surinam grass; [8]) | Plant response rating, Crabgrass, Large (large crabgrass; [7]) | Plant response rating, Foxtail, Giant (giant foxtail; [7]) | Plant response rating, Rice (rice [2]; [12]) | Blackgrass plant response rating (blackgrass; 125 g ai/ha)

CCCCn1nc(C(C)(C)C)cc1C(=O)Nc1cccc(C(C)=NO)c1 [Compound 119]
60: Plant response rating, Cocklebur (cocklebur; [14]) | Plant response rating, Lambsquarters (lambsquarters; [14])
50: Plant response rating, Velvetleaf (velvetleaf; [14])
0: Barnyardgrass plant response rating (barnyardgrass [1]; [8]) | Plant response rating, Barnyardgrass (barnyardgrass [1]; [15]) | Plant response rating, Surinam Grass (Surinam grass; [15]) | Plant response rating, Cocklebur (cocklebur; [13]) | Cocklebur plant response rating (cocklebur; [8]) | Plant response rating, Cocklebur (cocklebur; [15]) | Plant response rating, Corn (corn; [13]) | Plant response rating, Corn (corn; [15]) | Plant response rating, Foxtail, Giant (giant foxtail; [13]) | Plant response rating, Foxtail, Giant (giant foxtail; [15]) | Plant response rating, Lambsquarters (lambsquarters; [13]) | Lambsquarters plant response rating (lambsquarters; [8]) | Plant response rating, Lambsquarters (lambsquarters; [15]) | Morningglory plant response rating (morningglory; [8]) | Plant response rating, Morningglory (morningglory; [15]) | Plant response rating, Pigweed (pigweed; [13]) | Pigweed plant response rating (pigweed; [8]) | Plant response rating, Pigweed (pigweed; [15]) | Plant response rating, Rice (rice [2]; 125 g ai/ha, 0 to 100 scale, 0 is no effect, 100 is complete control) | Velvetleaf plant response rating (velvetleaf; [8]) | Plant response rating, Velvetleaf (velvetleaf; [15]) | Blackgrass plant response rating (blackgrass; 125 g ai/ha) | Plant response rating, Wheat (wheat; [14]) | Wheat plant response rating (wheat; [8]) | Rice plant response rating (rice [3]; visual rating, 13 to 15 days) | Sedge, Umbrella plant response rating ([4]; visual rating, 13 to 15 days) | Ducksalad plant response rating (ducksalad; visual rating, 13 to 15 days) | Barnyardgrass plant response rating (barnyardgrass [5]; visual rating, 13 to 15 days)
40: Plant response rating, Morningglory (morningglory; [14])
20: Plant response rating, Crabgrass, Large (large crabgrass; [14]) | Crabgrass, Large plant response rating (large crabgrass; [8]) | Plant response rating, Crabgrass, Large (large crabgrass; [15]) | Plant response rating, Oat, Wild (wild oat; [14])
10: Plant response rating, Barnyardgrass (barnyardgrass [1]; [13]) | Plant response rating, Barnyardgrass (barnyardgrass [1]; [14]) | Plant response rating, Surinam Grass (Surinam grass; [13]) | Plant response rating, Surinam Grass (Surinam grass; [14]) | Surinam Grass plant response rating (Surinam grass; [8]) | Corn plant response rating (corn; [8]) | Plant response rating, Foxtail, Giant (giant foxtail; [14]) | Foxtail, Giant plant response rating (giant foxtail; [8]) | Plant response rating, Morningglory (morningglory; [13]) | Plant response rating, Velvetleaf (velvetleaf; [13]) | Plant response rating, Blackgrass (blackgrass; Postemergence, 500 g ai/ha, visual rating after 13 to 15 days) | Oat, Wild plant response rating (wild oat; [8])
30: Plant response rating, Corn (corn; [14]) | Plant response rating, Pigweed (pigweed; [14])
80: Plant response rating, Crabgrass, Large (large crabgrass; [13])

CCN(CC)C(=O)c1cccc(NC(=O)c2nn(C(C)(C)C)cc2Br)c1 [Compound 220]
10: Plant response rating, Surinam Grass (Surinam grass; [7]) | Surinam Grass plant response rating (Surinam grass; [9]) | Cocklebur plant response rating (cocklebur; [9]) | Corn plant response rating (corn; [8]) | Corn plant response rating (corn; [9]) | Crabgrass, Large plant response rating (large crabgrass; [8]) | Crabgrass, Large plant response rating (large crabgrass; [9]) | Plant response rating, Foxtail, Giant (giant foxtail; [7]) | Foxtail, Giant plant response rating (giant foxtail; [9]) | Lambsquarters plant response rating (lambsquarters; [8]) | Pigweed plant response rating (pigweed; [8]) | Pigweed plant response rating (pigweed; [9]) | Oat, Wild plant response rating (wild oat; [9])
40: Ducksalad plant response rating (ducksalad; visual rating, 13 to 15 days)
80: Sedge, Umbrella plant response rating ([4]; visual rating, 13 to 15 days)
0: Barnyardgrass plant response rating (0 to 100 scale) (barnyardgrass [1]; [6]) | Plant response rating, Barnyardgrass (barnyardgrass [1]; [7]) | Barnyardgrass plant response rating (barnyardgrass [1]; [8]) | Barnyardgrass plant response rating (barnyardgrass [1]; [9]) | Surinam Grass plant response rating (0 to 100 scale) (Surinam grass; [6]) | Surinam Grass plant response rating (Surinam grass; [8]) | Cocklebur plant response rating (0 to 100 scale) (cocklebur; [6]) | Plant response rating, Cocklebur (cocklebur; [7]) | Cocklebur plant response rating (cocklebur; [8]) | Corn plant response rating (0 to 100 scale) (corn; [6]) | Plant response rating, Corn (corn; [7]) | Foxtail, Giant plant response rating (0 to 100 scale) (giant foxtail; [6]) | Foxtail, Giant plant response rating (giant foxtail; [8]) | Lambsquarters plant response rating (0 to 100 scale) (lambsquarters; [6]) | Morningglory plant response rating (0 to 100 scale) (morningglory; [6]) | Plant response rating, Morningglory (morningglory; [7]) | Morningglory plant response rating (morningglory; [8]) | Morningglory plant response rating (morningglory; [9]) | Pigweed plant response rating (0 to 100 scale) (pigweed; [6]) | Rice plant response rating (0 to 100 scale) (rice [2]; [11]) | Plant response rating, Rice (rice [2]; [12]) | Velvetleaf plant response rating (0 to 100 scale) (velvetleaf; [6]) | Plant response rating, Velvetleaf (velvetleaf; [7]) | Velvetleaf plant response rating (velvetleaf; [8]) | Velvetleaf plant response rating (velvetleaf; [9]) | Blackgrass plant response rating (blackgrass; 125 g ai/ha) | Blackgrass plant response rating (blackgrass; 500 g ai/ha) | Wheat plant response rating (wheat; [8]) | Wheat plant response rating (wheat; [9]) | Oat, Wild plant response rating (wild oat; [8]) | Rice plant response rating (rice [3]; visual rating, 13 to 15 days) | Barnyardgrass plant response rating (barnyardgrass [5]; visual rating, 13 to 15 days)
100: Plant response rating, Crabgrass, Large (large crabgrass; [7]) | Plant response rating, Pigweed (pigweed; [7])
70: Plant response rating, Lambsquarters (lambsquarters; [7])
20: Crabgrass, Large plant response rating (0 to 100 scale) (large crabgrass; [6]) | Lambsquarters plant response rating (lambsquarters; [9])

From patent US20060069132A1, “Azolecarboxamide herbicides” (priority 2004, published 2006)
